Measured values from patent US10456434B2, “Extracts obtained from cell line cultures from plants belonging to the Oleaceae family (e.g. Syringa vulgaris), their preparation and use” (CRODA ITALIANA S. P. A., priority 2005, dated 2019).

Columns and labels:
tyrosinase = experiment: Tyrosinase inhibition, conversion of L-DOPA to DOPAquinone; assay type: biochemical, Mushroom; conditions: 100 μg/ml
Source text: The enzyme tyrosinase catalyses the reactions leading to melanin biosynthesis from tyrosine. […] Substances inhibiting tyrosinase activity produce clearing/bleaching effect on the skin, since they block melanin synthesis. The method used to determine the inhibition of tyrosinase activity in the oxidation reaction of L-tyrosine to L-DOPA is that described in Kim et al. […] Biol. Pharm. Bull. 28(2), 323-327, 2005). The method applied for determination of the inhibition of tyrosinase activity in the conversion of L-DOPA to DOPAquinone is that described in Masamoto et al. (Mushroom tyrosinase inhibitory activity of esculetin isolated from seeds of Euphorbia lathyris L. Biosci. Biotechnol. Biochem., 67(3), 631-634, 2003).

[1] = target: T1, 5 alpha reductase type II (Homo sapiens, UniProt P31213); experiment: Type II 5 alpha reductase inhibition (14C testosterone conversion); assay type: biochemical; conditions: pH 5.0
T1 construct: made in house; host or cells: genetically modified yeast
T1 sequence (P31213 1-254): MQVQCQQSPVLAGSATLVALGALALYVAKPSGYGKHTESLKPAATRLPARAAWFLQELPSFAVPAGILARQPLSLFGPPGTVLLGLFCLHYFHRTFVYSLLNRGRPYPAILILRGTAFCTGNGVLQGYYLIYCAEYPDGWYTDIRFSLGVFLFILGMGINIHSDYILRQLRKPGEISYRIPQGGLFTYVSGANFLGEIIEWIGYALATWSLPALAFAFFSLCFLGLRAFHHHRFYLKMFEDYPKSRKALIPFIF
Source text: (§1) Determination of the 5 alpha reductase inhibitory activities by Syringa vulgaris extracts, verbascoside and isoverbascoside in comparison to Serenoa repens extracts. Said determination, has been performed using enzymes (5 alpha reductase, type I and type II) produced by genetically modified yeast. Enzyme activities have been determined in the presence of Syringa vulgaris and Serenoa repens extracts, verbascoside isoverbascoside.
Determination of the type II 5 alpha reductase activity has been performed in an analogous manner to that just described, with the exception of a different pH value for the 0.1 M Tris-citrate buffer (pH 5.0).
(§2) In both assays, the steroids have been extracted using 5 ml of methylene chloride. The extracts have then been dried under a stream of nitrogen and the dried residues obtained have, been dissolved in 20 μl of a chloroform-methanol mixture (2:1 v/v). An aliquot of said mixture has been deposited on the surface of a silica gel TLC plate. […] For quantification of the results, the spots have been scraped from the TLC plate and extracted with 2 ml of ethyl acetate. The extracts obtained have been analysed, using scintillation fluid, with the aid of a Wallach […]. The enzyme activity has been calculated from the percentage conversion (C %) of the substrate into final product:
(§3) C %=[counted product/(counted substrate+product)]×100.

platelets [2] = experiment: Platelet disaggregation 10 minutes after ADP; assay type: cell-based, rabbit; conditions: 1.0 mg/ml
Description: (§4) Platelet enriched rabbit plasma has been used to assess the platelet anti-aggregating and disaggregating properties of Syringa vulgaris Extract 1, verbascoside and isoverbascoside. Platelet rich plasma has been obtained from rabbit venous blood by mixing it with a 3.8% sodium citrate solution (9:1 v/v). The solution has then been centrifuged at 460×g for 20 minutes. The supernatant has been collected and immediately used for the aggregation assays. Platelet aggregation has been recorded using a Chronolog “Ionised calcium platelet aggregometer” (Chrono-log Co., USA). All measurements have been performed at 37° C. with continuous stirring. […] Then 10 μl of a solution of ADP (final concentration—10 μm) has been added and the luminous transmittance continuously recorded. The results are expressed as the DÒ/DÒÊ ratio, where DÒÊ and DÒ are the luminous transmittance values, in the absence and presence of extract respectively. Platelet disaggregation (the disappearance of pre formed aggregates) has been determined using the same luminous transmittance curve 10 minutes following the addition of ADP. The results are expressed as the DR/DRk ratio, where DRk and DR, are the luminous transmittance in the absence and presence of extract. […]

5 alpha reductase type I = target: T2, 5 alpha reductase type I (Homo sapiens, UniProt P18405); experiment: Type I 5 alpha reductase inhibition (14C testosterone conversion); assay type: biochemical; conditions: pH 7.0
T2 construct: made in house; host or cells: genetically modified yeast
T2 sequence (P18405 1-259): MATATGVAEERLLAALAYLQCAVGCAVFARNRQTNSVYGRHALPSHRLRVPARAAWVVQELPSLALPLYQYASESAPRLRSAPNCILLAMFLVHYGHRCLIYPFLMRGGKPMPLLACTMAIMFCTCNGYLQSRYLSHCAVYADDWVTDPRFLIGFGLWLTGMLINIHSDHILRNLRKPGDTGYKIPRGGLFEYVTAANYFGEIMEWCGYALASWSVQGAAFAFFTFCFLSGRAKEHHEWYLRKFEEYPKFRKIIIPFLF
Description: as §1
Type I 5 alpha reductase activity has been assayed by incubating the enzyme in 0.1M Tris-citrate buffer (pH 7.0), containing 5 μM (^14C) radio-labelled testosterone (Amersham, Sweden) and 5 mM NADPH (Sigma) in a final volume of 5 ml. The solution thus obtained has been incubated for 1 hour at 37° C.
as §2, with “v/v).” for “v/v). An aliquot of said mixture has been deposited on the surface of a silica gel TLC plate.”
as §3

platelets [3] = experiment: ADP induced platelet aggregation in platelet rich plasma; assay type: cell-based, rabbit; conditions: 1.0 mg/ml
Description: as §4

[4] = Metal chelating activity (spectrophotometric), Ni2+; assay type: binding; conditions: chelation equilibrium constant, calculated for a pure phenylpropanoid
Source text: The chelating activities of Syringa vulgaris extracts, verbascoside and isoverbascoside in relation to Fe^2+, Fe^3+, Cu^2+ and Ni^2+ metal ions has been determined by means of spectrophotometric measurements using a Shimadzu 1770 UV spectrophotometer. The activities of chelating agents depends on the association constant (equilibrium) of their reactions with the metals according to the following reaction:
[formula] wherein Keq is the equilibrium constant equal to the ratio of concentrations at equilibrium of a complex and product of equilibrium concentrations of metal ions and a chelator:
[formula] The method used for determining chelating activity is well documented in the literature (Korkina L G, Afarras'er IB. Antioxidant and chelating properties of flavonoids. Adv. Pharmacol., 1997, 38:151-63). The results are expressed as Keg (M^−1) calculated for a pure phenylpropanoid. This way the chelating activity against ferrous (Fe II), ferric (Fe III), copper (Cu II) and nickel ions has been calculated.

SMILES | Test LDOPA-DOPAquinone inhibitory activity (%) (tyrosinase) | IC50 [1] [µM] | Disaggregation (% with respect to control) (platelets [2]) [%] | IC50 (5 alpha reductase type I) [µM] | Aggregation (% with respect to control) (platelets [3]) [%] | Ni^2+ (Keq, M^−1) [4] [M⁻¹]
CC1OC(OC2C(O)C(COC(=O)C=Cc3ccc(O)c(O)c3)OC(OCCc3ccc(O)c(O)c3)C2O)C(O)C(O)C1O [Isoverbascoside, b-(3,4-dihydroxyphenyl)-ethyl-O-α-L-ramnopyranosyl(1″-3′)-b-D-(6′-O-caffeoil)glucopyranoside] | 10 | 32 | 75 ± 21 | 19.2 | 25 ± 6 | 1398 ± 362
C[C@@H]1O[C@@H](O[C@@H]2[C@@H](O)[C@H](OCCc3ccc(O)c(O)c3)O[C@H](CO)[C@H]2OC(=O)/C=C/c2ccc(O)c(O)c2)[C@H](O)[C@H](O)[C@H]1O [Verbascoside, b-(3,4-dihydroxyphenyl)-ethyl-O-α-L-ramnopyranosyl (1″-3′)-b-D-(4′-O-caffeoil)-glucopyranoside] | 20.6 | 33.6 | 73 ± 21 | 20.8 | 24 ± 6 | 1427 ± 319
